Results on five compounds are retold here after ChEMBL document CHEMBL4184241, “2-Formyl-komarovicine promotes adiponectin production in human mesenchymal stem cells through PPARγ partial agonism” (Bioorg Med Chem, 2018).

The species entered for test [1] is Homo sapiens. As to the kind of experiment: Induction of adipogenesis in human bone marrow-derived mesenchymal stem cells assessed as increase in adiponectin production at 100 uM measured on day 5 in presence of IDX by ELISA. Type of test: functional.
Test [2] is filed under the species Homo sapiens. As to the kind of experiment: Induction of adipogenesis in human bone marrow-derived mesenchymal stem cells assessed as increase in adiponectin production at 10 uM measured on day 5 in presence of IDX by ELISA. Type of test: functional.
In test [3] the target is T1, Glucocorticoid receptor (Homo sapiens) (UniProt P04150).
T1 sequence (whole entry): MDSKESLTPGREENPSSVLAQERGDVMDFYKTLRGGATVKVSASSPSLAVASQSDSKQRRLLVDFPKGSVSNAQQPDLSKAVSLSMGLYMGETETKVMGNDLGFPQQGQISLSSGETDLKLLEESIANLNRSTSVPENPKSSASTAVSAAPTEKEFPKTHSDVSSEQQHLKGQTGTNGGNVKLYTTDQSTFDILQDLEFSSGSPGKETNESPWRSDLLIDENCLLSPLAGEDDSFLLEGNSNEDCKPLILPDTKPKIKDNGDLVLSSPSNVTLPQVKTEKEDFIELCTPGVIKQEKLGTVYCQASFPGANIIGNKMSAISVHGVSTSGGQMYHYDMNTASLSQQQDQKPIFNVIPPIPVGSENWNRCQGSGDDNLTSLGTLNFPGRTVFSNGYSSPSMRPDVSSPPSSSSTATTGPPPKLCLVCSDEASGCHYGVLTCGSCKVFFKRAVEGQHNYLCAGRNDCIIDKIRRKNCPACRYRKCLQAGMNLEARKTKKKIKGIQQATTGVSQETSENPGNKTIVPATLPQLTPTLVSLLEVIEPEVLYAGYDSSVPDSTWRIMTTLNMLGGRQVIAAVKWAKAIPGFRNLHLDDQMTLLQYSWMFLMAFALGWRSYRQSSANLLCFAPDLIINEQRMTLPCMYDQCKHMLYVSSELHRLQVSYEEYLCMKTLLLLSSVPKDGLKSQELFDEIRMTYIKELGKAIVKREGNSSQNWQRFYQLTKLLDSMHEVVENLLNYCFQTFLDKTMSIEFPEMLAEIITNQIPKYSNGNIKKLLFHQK
In words: Displacement of fluormone GS1 from human GST-tagged glucocorticoid receptor-LBD at 30 uM by TR-FRET assay.

Test [4] deals with T2, Oxysterols receptor LXR-beta (Homo sapiens) (UniProt P55055).
T2 sequence (whole entry): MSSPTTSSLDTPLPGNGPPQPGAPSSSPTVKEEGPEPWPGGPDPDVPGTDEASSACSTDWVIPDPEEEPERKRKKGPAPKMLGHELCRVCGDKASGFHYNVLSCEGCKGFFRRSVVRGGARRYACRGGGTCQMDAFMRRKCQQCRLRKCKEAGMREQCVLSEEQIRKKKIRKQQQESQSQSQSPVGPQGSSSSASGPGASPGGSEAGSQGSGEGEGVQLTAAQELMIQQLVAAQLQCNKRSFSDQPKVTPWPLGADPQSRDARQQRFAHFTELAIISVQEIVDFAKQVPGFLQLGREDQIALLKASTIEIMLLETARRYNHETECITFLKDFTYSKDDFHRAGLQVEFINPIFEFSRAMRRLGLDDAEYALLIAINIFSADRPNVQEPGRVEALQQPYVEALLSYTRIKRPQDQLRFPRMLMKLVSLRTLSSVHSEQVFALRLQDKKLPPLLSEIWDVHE
As to the kind of experiment: Transactivation of LXRbeta (unknown origin) at 30 uM by TR-FRET assay.

The species entered for test [5] is Homo sapiens. In words: Induction of adipogenesis in human bone marrow-derived mesenchymal stem cells assessed as increase in adiponectin production at 60 uM measured on day 5 in presence of IDX by ELISA. Type of test: functional.
The target in test [6] is T3, Peroxisome proliferator-activated receptor delta (Homo sapiens) (UniProt Q03181).
T3 sequence (whole entry): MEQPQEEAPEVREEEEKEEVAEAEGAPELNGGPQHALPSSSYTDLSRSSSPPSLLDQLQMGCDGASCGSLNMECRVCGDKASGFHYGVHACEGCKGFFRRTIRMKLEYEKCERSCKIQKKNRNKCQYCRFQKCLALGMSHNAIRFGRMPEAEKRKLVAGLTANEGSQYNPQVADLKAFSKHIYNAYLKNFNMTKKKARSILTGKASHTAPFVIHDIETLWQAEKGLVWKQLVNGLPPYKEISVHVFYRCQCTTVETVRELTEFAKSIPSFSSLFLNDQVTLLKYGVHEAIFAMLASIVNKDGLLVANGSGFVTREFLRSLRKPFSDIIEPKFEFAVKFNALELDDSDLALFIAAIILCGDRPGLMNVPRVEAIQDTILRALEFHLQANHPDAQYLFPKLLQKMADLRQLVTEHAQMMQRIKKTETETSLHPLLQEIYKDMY
As to the kind of experiment: Displacement of fluormone Pan-PPAR Green from human GST-tagged PPARdelta-LBD at 30 uM by TR-FRET assay.

The target of test [7] is T4, Peroxisome proliferator-activated receptor alpha (Homo sapiens) (UniProt Q07869).
T4 sequence (whole entry): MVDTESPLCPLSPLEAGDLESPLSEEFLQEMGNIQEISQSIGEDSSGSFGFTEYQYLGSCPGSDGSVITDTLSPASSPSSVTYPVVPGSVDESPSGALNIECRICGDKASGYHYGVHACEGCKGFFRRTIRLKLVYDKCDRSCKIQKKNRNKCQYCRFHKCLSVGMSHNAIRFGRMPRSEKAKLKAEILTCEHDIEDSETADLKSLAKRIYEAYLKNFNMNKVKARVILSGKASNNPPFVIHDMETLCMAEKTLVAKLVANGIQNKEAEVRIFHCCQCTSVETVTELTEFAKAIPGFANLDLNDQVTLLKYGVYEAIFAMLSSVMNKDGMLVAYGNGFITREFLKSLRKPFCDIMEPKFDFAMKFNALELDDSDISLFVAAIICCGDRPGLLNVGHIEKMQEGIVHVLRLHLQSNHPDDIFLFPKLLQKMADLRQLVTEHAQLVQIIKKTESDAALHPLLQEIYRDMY
As to the kind of experiment: Displacement of fluormone Pan-PPAR Green from human GST-tagged PPARalpha-LBD at 30 uM by TR-FRET assay.

Test [8] addresses T5, Peroxisome proliferator-activated receptor gamma (Homo sapiens) (UniProt P37231).
T5 sequence (whole entry): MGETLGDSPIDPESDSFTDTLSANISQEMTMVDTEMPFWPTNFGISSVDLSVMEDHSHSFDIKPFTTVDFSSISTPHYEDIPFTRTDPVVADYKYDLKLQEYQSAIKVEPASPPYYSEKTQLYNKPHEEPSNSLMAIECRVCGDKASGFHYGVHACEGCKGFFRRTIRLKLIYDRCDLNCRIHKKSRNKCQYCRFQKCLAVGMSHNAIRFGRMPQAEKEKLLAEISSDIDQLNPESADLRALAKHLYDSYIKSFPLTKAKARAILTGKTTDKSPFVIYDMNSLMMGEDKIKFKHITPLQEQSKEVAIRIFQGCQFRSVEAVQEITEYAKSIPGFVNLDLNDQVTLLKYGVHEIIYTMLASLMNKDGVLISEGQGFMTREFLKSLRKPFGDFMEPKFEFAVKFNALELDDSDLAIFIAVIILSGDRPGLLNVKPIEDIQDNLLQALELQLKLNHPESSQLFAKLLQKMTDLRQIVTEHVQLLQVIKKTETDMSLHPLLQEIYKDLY
In words: Displacement of fluormone Pan-PPAR Green from human GST-tagged PPARgamma-LBD at 30 uM by TR-FRET assay relative to control.

For test [9], the target named is T6, Oxysterols receptor LXR-alpha (Homo sapiens) (UniProt Q13133).
T6 sequence (whole entry): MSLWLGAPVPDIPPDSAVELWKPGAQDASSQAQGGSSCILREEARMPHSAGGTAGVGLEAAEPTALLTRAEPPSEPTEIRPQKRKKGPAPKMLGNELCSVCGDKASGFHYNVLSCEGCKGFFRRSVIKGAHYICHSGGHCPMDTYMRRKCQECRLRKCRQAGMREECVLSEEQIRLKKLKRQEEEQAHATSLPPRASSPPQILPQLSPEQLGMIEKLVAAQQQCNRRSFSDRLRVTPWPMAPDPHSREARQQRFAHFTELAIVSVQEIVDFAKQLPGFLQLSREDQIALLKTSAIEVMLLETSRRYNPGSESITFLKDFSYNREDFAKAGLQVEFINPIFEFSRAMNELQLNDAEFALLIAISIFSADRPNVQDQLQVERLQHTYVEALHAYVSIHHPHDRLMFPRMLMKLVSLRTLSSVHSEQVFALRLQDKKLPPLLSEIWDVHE
As to the kind of experiment: Transactivation of recombinant human GST-tagged LXRalpha-LBD at 30 uM by TR-FRET assay.

Test [10] addresses T6, Oxysterols receptor LXR-alpha (Homo sapiens). In words: Transactivation of recombinant human GST-tagged LXRalpha-LBD at 10 uM by TR-FRET assay.
Test [11] has as its target T5, Peroxisome proliferator-activated receptor gamma (Homo sapiens). As to the kind of experiment: Partial agonist activity at PPARgamma in human bone marrow-derived mesenchymal stem cells assessed as inhibition of troglitazone-induced upregulation of adiponectin mRNA level at 3 to 10 uM measured on day 3 in presence of IDX by qRT-PCR analysis.
For test [12] the target is unchanged. In words: Partial agonist activity at PPARgamma in human bone marrow-derived mesenchymal stem cells assessed as inhibition of troglitazone-induced upregulation of FABP4 mRNA level at 3 to 10 uM measured on day 3 in presence of IDX by qRT-PCR analysis.
Test [13] concerns the target T4, Peroxisome proliferator-activated receptor alpha (Homo sapiens). As to the kind of experiment: Displacement of fluormone Pan-PPAR Green from human GST-tagged PPARalpha-LBD at 10 uM by TR-FRET assay.
For test [14], the target named is T1, Glucocorticoid receptor (Homo sapiens). As to the kind of experiment: Displacement of fluormone GS1 from human GST-tagged glucocorticoid receptor-LBD at 10 uM by TR-FRET assay.
The species named for test [15] is Homo sapiens. In words: Induction of adipogenesis in human bone marrow-derived mesenchymal stem cells assessed as increase in adiponectin production measured on day 5 in presence of IDX by ELISA. The format is functional.
Test [16] deals with T5, Peroxisome proliferator-activated receptor gamma (Homo sapiens). In words: Partial agonist activity at PPARgamma in human bone marrow-derived mesenchymal stem cells assessed as inhibition of troglitazone-induced upregulation of PPARgamma mRNA level at 3 to 10 uM measured on day 3 in presence of IDX by qRT-PCR analysis.
Test [17] addresses T3, Peroxisome proliferator-activated receptor delta (Homo sapiens). In words: Displacement of fluormone Pan-PPAR Green from human GST-tagged PPARdelta-LBD at 10 uM by TR-FRET assay.
For test [18], the target named is T2, Oxysterols receptor LXR-beta (Homo sapiens). As to the kind of experiment: Transactivation of LXRbeta (unknown origin) at 10 uM by TR-FRET assay.
Test [19] concerns the target T5, Peroxisome proliferator-activated receptor gamma (Homo sapiens). As to the kind of experiment: Displacement of fluormone Pan-PPAR Green from human GST-tagged PPARgamma-LBD at 10 uM by TR-FRET assay relative to control.
Test [20] is filed under the species Homo sapiens. In words: Induction of adipogenesis in human bone marrow-derived mesenchymal stem cells assessed as increase in lipid droplet accumulation at 30 uM measured on day 5 in presence of IDX by ORO staining based spectrophotometric analysis. Type of test: functional.
Test [21] deals with T5, Peroxisome proliferator-activated receptor gamma (Homo sapiens). As to the kind of experiment: Partial agonist activity at PPARgamma in human bone marrow-derived mesenchymal stem cells assessed as inhibition of troglitazone-induced increase in adiponectin level at 3 to 10 uM measured on day 5 in presence of IDX by ELISA.
Test [22] concerns the target T7, Peroxisome proliferator-activated receptor gamma (Homo sapiens, UniProt P37231).
T7 sequence (P37231 whole entry): T5 sequence (whole entry)
In words: Displacement of fluormone Pan-PPAR Green from human GST-tagged PPARgamma-LBD by TR-FRET assay.

The species named for test [23] is Homo sapiens. In words: Induction of adipogenesis in human bone marrow-derived mesenchymal stem cells assessed as increase in adiponectin production at 1 uM measured on day 5 in presence of IDX by ELISA. Type of test: functional.

The source made the active and inactive calls. The calls are words filed in the database; no cut-off is given here.

On to `CC(=O)Oc1ccccc1C(=O)O`, for which the result in the test listed under Homo sapiens [1] was Active.
On to `COc1ccc(Cl)cc1C(=O)NCCc1ccc(S(=O)(=O)NC(=O)NC2CCCCC2)cc1`, for which the result in the test listed under Homo sapiens [2] was Active.
On to `c1cnc2c(C3NCCc4c3[nH]c3ccccc43)cccc2c1` (stereo not drawn), for which the result in test [3], in test [4], in test [6], in test [7] and in test [9] was inactive. Moreover, the outcome in the test filed under Homo sapiens [5] was Active. In [8], this compound gave an Activity of 24 to 36%.
With `O=CN1CCc2c([nH]c3ccccc23)C1c1cccc2cccnc12` (stereo not drawn), the result in [10], in test [13], in test [14], in test [17] and in test [18] was inactive. Besides, the inhibition result in [11], in test [12], in test [16] and in test [21] was “Active” throughout. The Activity entry in the test listed under Homo sapiens [15] was “Dose-dependent effect”; in [19], 58%. The outcome in the test filed under Homo sapiens [20] was Active. Further, in [22], the Ki is 7.1 µM.
Consider `Cc1c(C)c2c(c(C)c1O)CCC(C)(COc1ccc(CC3SC(=O)NC3=O)cc1)O2` (stereo not drawn), for which, in the test listed under Homo sapiens [23], the result was Active.
